According to ChEMBL document CHEMBL1153718, “1,2,4-Triazolyl azabicyclo[3.1.0]hexanes: a new series of potent and selective dopamine D(3) receptor antagonists” (J Med Chem, 2010):

Legend:
[1] = Clearance in po dosed rat blood; format: ADME, organism-based
[2] = Half life in po dosed rat; format: ADME, organism-based; details: in vivo
[3] = system: Rattus norvegicus; assay: Volume of distribution at steady state in po dosed rat; format: ADME, organism-based; details: in vivo
[4] = Oral bioavailability in rat; format: ADME, organism-based; details: in vivo
[5] = Cmax in Hartley guinea pig at 0.5 to 15 mg/kg, iv; format: ADME, organism-based, Cavia porcellus; set-up: dose 0.5-15 mg/kg, route intravenous; details: in vivo

Row | Structure (SMILES) | CL/F [1] [mL/min/kg] | half-life [2] [h] | Vdss [3] [L/kg] | bioavailability [4] [%] | Cmax [5] [ng/mL]
1 | Cc1nc(C)c(-c2nnc(SCCCN3C[C@@H]4C[C@]4(c4ccc(C(F)(F)F)cc4)C3)n2C)s1 | 26 | 2 | 3.9 | 23 | 8320
2 | Cn1c(SCCCN2C[C@@H]3C[C@]3(c3ccc(C(F)(F)F)cc3)C2)nnc1-c1ccnnc1 | 13 | 2.1 | 2.2 | 46 | 9580
3 | Cc1ncoc1-c1nnc(SCCCN2CC3CC3(c3ccc(Cl)cc3)C2)n1C (single isomer, unassigned; 51) | 40 | 1.3 | 2.6 | 31 | 

More lines, now with the values ahead:

Row | CL/F [1] [mL/min/kg] | half-life [2] [h] | Vdss [3] [L/kg] | bioavailability [4] [%] | Cmax [5] [ng/mL] | Structure (SMILES)
4 | 18 | 2.1 | 2.5 | 50 | 6240 | Cc1ncccc1-c1nnc(SCCCN2C[C@@H]3C[C@]3(c3ccc(C(F)(F)F)cc3)C2)n1C
5 | 14 | 3.2 | 3.5 | 85 |  | Cc1ncoc1-c1nnc(SCCCN2CC3CC3(c3ccc(C(F)(F)F)cc3)C2)n1C (racemic)
6 | 18 | 3.7 | 4.3 | 47 | 8640 | Cc1ncoc1-c1nnc(SCCCN2CC3CC3(c3ccc(C(F)(F)F)cc3F)C2)n1C (single isomer, unassigned; 74)
